How the values were obtained:
[1] = target: Beta-2 adrenergic receptor (Homo sapiens, UniProt P07550)
[2] = target: Neuronal acetylcholine receptor subunit alpha-4 (Homo sapiens, UniProt P43681)
Vasopressin V2 receptor = Vasopressin V2 receptor (Homo sapiens, UniProt P30518)
B2 bradykinin receptor = target: T1, B2 bradykinin receptor (Homo sapiens, UniProt P30411)
T1 sequence (P30411 whole entry): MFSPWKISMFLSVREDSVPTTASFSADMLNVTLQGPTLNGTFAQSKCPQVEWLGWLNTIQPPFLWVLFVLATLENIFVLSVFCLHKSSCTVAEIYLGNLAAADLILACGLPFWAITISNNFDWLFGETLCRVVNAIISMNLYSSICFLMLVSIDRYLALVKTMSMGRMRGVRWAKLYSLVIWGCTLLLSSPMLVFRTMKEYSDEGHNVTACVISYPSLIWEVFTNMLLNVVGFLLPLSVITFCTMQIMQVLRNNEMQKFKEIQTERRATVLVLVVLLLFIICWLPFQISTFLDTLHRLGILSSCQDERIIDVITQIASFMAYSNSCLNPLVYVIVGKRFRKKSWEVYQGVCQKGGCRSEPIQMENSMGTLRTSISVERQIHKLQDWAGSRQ

[3] = target: Muscarinic acetylcholine receptor M3 (Homo sapiens, UniProt P20309)
Chain of Muscarinic acetylcholine receptor M3 (P20309 whole entry): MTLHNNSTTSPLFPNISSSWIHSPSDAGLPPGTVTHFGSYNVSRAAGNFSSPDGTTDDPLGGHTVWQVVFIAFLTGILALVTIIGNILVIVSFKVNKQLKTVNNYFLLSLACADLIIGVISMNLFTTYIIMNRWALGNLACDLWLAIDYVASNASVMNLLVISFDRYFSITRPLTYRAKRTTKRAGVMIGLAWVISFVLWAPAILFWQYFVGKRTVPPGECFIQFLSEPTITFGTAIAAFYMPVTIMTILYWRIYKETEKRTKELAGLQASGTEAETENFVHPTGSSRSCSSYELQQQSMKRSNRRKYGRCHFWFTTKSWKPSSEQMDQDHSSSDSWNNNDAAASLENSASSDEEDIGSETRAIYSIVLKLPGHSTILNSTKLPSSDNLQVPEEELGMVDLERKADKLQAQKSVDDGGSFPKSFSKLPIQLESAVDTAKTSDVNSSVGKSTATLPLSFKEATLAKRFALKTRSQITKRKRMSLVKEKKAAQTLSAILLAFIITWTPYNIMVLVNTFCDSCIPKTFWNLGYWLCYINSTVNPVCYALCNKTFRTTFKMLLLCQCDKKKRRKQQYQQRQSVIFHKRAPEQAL

Histamine H2 receptor = Histamine H2 receptor (Homo sapiens, UniProt P25021); format: functional, cell-based
Chain of Histamine H2 receptor (P25021 whole entry): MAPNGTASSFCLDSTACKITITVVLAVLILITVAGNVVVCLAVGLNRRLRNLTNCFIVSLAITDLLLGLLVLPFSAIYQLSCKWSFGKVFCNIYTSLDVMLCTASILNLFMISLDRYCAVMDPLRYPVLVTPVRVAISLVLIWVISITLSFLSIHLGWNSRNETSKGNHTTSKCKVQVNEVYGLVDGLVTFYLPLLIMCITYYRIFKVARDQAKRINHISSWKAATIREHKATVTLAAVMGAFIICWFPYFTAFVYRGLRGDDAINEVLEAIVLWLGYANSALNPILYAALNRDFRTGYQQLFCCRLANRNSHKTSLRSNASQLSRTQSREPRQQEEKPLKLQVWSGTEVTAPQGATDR

[4] = target: Sodium-dependent dopamine transporter (Homo sapiens, UniProt Q01959)
Chain of Sodium-dependent dopamine transporter (Q01959 whole entry): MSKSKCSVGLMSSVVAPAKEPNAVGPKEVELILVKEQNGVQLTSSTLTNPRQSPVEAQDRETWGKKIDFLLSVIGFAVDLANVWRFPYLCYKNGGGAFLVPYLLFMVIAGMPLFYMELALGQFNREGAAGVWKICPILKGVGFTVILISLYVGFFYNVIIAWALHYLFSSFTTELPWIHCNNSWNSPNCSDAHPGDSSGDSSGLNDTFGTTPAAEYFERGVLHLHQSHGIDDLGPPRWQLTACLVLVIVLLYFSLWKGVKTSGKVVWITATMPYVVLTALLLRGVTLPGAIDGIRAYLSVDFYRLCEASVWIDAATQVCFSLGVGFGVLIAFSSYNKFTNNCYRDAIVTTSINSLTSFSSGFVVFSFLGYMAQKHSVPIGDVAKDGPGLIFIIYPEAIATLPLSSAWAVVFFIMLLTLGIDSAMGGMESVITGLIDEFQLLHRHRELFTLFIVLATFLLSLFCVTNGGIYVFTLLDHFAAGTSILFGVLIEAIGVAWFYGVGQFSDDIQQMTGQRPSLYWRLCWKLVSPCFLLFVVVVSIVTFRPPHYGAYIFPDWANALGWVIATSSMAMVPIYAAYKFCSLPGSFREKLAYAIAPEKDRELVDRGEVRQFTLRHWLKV

Endothelin-1 receptor = target: T2, Endothelin-1 receptor (Homo sapiens, UniProt P25101)
T2 sequence (P25101 whole entry): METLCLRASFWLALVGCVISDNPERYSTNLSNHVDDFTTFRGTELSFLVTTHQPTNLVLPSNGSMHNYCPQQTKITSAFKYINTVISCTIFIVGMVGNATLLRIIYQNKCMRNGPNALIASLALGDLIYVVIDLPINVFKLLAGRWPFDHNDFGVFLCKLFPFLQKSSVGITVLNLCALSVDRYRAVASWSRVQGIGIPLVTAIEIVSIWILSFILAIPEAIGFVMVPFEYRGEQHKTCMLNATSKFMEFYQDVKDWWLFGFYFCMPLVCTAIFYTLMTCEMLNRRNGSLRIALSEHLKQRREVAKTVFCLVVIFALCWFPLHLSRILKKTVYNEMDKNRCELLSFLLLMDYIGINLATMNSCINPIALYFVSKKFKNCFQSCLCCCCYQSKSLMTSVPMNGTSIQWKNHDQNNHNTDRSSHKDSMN

[5] = target: T3, Alpha-2C adrenergic receptor (Homo sapiens, UniProt P18825); format: functional
T3 sequence (P18825 whole entry): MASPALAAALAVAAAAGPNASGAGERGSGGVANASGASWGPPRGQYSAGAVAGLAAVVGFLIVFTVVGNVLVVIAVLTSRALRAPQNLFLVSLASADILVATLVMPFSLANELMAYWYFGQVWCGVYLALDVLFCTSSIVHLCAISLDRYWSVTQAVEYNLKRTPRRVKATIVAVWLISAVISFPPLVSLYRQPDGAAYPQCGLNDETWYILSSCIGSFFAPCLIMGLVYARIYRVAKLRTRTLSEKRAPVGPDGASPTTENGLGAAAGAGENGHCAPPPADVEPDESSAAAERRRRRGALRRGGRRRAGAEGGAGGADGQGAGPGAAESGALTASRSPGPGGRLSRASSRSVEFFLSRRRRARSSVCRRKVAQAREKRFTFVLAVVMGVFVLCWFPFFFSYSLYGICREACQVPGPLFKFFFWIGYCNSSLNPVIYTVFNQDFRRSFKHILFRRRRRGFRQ

Motilin receptor = Motilin receptor (Homo sapiens, UniProt O43193)
Chain of Motilin receptor (O43193 whole entry): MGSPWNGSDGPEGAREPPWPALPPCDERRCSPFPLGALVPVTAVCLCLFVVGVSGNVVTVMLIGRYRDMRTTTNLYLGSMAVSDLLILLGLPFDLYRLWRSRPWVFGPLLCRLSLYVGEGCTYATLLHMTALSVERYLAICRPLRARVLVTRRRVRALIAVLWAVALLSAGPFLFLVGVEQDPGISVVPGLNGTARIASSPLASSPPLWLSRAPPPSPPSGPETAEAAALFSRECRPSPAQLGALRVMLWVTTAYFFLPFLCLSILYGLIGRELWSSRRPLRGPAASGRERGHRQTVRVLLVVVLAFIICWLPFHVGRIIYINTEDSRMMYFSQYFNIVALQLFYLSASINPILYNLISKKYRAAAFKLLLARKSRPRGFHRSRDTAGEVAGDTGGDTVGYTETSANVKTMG

D(3) dopamine receptor = D(3) dopamine receptor (Homo sapiens, UniProt P35462)
Chain of D(3) dopamine receptor (P35462 whole entry): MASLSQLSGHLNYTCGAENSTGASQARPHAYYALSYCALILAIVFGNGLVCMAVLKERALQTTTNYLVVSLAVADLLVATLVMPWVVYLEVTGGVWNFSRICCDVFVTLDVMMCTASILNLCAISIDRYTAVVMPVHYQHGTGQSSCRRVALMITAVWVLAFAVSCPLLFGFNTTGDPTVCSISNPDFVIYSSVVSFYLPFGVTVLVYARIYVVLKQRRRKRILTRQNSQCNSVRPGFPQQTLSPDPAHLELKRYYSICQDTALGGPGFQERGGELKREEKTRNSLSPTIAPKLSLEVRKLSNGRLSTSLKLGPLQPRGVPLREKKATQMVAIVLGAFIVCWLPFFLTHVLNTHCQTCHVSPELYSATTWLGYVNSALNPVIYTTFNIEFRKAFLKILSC

Mu-type opioid receptor = Mu-type opioid receptor (Homo sapiens, UniProt P35372); experiment: biochemical; format: functional
Chain of Mu-type opioid receptor (P35372 whole entry): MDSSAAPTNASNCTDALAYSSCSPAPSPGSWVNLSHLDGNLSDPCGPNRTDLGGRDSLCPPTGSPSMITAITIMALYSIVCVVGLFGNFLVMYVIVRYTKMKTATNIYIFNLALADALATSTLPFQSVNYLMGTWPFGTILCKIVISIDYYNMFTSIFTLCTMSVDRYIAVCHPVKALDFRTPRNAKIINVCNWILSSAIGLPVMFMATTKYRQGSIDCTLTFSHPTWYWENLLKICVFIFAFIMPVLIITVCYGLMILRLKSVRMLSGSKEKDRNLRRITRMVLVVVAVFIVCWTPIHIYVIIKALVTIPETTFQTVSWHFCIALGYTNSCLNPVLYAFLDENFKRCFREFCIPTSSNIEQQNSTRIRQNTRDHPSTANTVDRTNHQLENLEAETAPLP

[6] = target: T4, Cholecystokinin receptor type A (Homo sapiens, UniProt P32238)
T4 sequence (P32238 whole entry): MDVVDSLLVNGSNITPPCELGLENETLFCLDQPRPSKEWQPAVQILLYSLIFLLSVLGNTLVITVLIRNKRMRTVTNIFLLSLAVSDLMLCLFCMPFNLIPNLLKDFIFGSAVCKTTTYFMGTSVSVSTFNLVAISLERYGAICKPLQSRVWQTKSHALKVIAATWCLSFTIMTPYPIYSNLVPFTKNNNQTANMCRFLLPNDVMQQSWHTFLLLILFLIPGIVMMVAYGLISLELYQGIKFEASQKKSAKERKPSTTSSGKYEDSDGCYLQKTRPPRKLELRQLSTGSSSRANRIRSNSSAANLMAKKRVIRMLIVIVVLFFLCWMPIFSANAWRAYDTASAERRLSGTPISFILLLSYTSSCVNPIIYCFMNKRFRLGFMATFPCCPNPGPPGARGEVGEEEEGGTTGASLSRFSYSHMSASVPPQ

[7] = target: 5-hydroxytryptamine receptor 2A (Homo sapiens, UniProt P28223); format: functional, cell-based
Chain of 5-hydroxytryptamine receptor 2A (P28223 whole entry): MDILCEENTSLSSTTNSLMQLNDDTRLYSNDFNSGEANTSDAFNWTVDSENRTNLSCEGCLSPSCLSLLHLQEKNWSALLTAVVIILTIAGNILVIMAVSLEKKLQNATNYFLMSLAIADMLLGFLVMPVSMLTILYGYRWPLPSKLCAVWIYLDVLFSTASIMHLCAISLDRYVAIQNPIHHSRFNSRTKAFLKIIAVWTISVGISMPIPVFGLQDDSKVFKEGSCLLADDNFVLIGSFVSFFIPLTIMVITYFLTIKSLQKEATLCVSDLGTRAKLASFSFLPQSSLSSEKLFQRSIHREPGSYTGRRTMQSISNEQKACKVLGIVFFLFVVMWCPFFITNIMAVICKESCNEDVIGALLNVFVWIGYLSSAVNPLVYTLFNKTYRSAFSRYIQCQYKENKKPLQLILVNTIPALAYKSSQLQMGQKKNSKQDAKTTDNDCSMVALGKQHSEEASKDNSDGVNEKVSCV

[8] = target: T5, Muscarinic acetylcholine receptor M2 (Homo sapiens, UniProt P08172); format: functional, cell-based
T5 sequence (P08172 whole entry): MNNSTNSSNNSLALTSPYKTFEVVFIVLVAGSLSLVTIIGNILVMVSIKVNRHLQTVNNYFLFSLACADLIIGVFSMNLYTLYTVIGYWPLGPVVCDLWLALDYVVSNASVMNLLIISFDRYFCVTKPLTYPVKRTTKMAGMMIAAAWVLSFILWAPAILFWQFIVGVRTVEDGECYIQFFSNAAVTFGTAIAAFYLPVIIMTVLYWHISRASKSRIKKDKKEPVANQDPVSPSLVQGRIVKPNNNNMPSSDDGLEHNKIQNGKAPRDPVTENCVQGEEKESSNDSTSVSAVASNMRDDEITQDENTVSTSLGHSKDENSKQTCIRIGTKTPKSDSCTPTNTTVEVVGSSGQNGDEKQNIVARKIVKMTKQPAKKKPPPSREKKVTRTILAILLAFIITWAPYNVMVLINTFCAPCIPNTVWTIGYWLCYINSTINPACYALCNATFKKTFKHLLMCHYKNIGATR
Note: assay procedure not described here.

Chain of Beta-2 adrenergic receptor (P07550 whole entry): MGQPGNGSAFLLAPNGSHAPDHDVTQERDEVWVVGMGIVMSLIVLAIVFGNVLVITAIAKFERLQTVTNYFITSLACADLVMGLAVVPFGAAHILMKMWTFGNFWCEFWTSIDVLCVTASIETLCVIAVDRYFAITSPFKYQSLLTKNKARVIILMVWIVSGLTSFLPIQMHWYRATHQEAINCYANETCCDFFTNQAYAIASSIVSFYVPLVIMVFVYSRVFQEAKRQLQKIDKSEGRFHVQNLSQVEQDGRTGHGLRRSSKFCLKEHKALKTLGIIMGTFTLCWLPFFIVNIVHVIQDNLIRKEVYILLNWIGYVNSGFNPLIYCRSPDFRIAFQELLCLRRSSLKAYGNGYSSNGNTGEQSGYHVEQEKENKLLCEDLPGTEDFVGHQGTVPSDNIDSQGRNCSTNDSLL
Chain of Neuronal acetylcholine receptor subunit alpha-4 (P43681 whole entry): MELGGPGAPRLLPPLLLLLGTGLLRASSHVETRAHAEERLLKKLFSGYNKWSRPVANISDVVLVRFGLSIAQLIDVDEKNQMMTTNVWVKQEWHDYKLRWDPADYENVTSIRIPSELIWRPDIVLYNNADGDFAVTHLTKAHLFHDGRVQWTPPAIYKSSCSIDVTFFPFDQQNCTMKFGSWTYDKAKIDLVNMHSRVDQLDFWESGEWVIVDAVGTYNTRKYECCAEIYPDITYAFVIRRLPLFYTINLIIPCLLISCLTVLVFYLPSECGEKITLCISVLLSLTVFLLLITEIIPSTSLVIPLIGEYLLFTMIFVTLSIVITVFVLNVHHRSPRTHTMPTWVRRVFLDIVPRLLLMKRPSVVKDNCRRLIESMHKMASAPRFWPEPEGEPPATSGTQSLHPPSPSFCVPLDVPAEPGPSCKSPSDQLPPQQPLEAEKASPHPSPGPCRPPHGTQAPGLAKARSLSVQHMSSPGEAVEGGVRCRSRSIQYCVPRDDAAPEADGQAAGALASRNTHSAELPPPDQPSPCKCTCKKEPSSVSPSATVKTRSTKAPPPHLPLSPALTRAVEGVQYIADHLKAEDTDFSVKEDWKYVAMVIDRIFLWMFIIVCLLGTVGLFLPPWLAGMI
Chain of Vasopressin V2 receptor (P30518 whole entry): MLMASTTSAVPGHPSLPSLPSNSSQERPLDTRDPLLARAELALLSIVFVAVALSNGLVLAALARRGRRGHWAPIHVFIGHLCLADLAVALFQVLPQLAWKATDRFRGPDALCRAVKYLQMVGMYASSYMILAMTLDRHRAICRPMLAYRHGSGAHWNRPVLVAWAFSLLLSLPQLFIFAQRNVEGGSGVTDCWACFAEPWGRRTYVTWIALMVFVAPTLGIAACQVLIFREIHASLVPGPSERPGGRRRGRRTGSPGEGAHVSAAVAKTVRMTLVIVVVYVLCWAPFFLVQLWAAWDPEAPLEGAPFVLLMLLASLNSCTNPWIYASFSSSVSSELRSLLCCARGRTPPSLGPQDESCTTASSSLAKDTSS

## OC(CNCC(O)C1CCc2cc(F)ccc2O1)C1CCc2cc(F)ccc2O1 (stereo unspecified) [NEBIVOLOL]
[1]
  AC50: 0.07 µM
[2]
  AC50: > 30 µM
Vasopressin V2 receptor
  AC50: 29 µM
B2 bradykinin receptor
  AC50: > 30 µM
[3]
  AC50: > 30 µM
Histamine H2 receptor
  AC50: > 30 µM
[4]
  AC50: 3.2 µM
Endothelin-1 receptor
  AC50: > 30 µM
[5]
  AC50: 2 µM
Motilin receptor
  AC50: 21 µM
D(3) dopamine receptor
  AC50: 2 µM
Mu-type opioid receptor
  AC50: 3.3 µM
[6]
  AC50: > 30 µM
[7]
  AC50: > 30 µM
[8]
  AC50: > 10 µM

## CC(CC(c1ccccc1)c1ccccc1)NC(C)(C)C (stereo unspecified) [TERODILINE]
[1]
  AC50: > 30 µM
[2]
  AC50: > 30 µM
Vasopressin V2 receptor
  AC50: > 30 µM
B2 bradykinin receptor
  AC50: > 30 µM
[3]
  AC50: 1.1 µM
Histamine H2 receptor
  AC50: > 30 µM
[4]
  AC50: 20 µM
Endothelin-1 receptor
  AC50: > 30 µM
[5]
  AC50: > 30 µM
Motilin receptor
  AC50: > 30 µM
D(3) dopamine receptor
  AC50: > 30 µM
Mu-type opioid receptor
  AC50: > 30 µM
[6]
  AC50: > 30 µM
[7]
  AC50: > 30 µM
[8]
  AC50: 3.1 µM

## CCOC(=O)[N-]c1cn(N2CCOCC2)n[o+]1 [MOLSIDOMINE]
[1]
  AC50: > 30 µM
[2]
  AC50: > 30 µM
Vasopressin V2 receptor
  AC50: > 30 µM
B2 bradykinin receptor
  AC50: > 30 µM
[3]
  AC50: > 30 µM
Histamine H2 receptor
  AC50: > 30 µM
[4]
  AC50: > 30 µM
Endothelin-1 receptor
  AC50: > 30 µM
[5]
  AC50: > 30 µM
Motilin receptor
  AC50: > 30 µM
D(3) dopamine receptor
  AC50: > 30 µM
Mu-type opioid receptor
  AC50: > 30 µM
[6]
  AC50: > 30 µM
[7]
  AC50: > 30 µM
[8]
  AC50: > 30 µM

## CC(C(=O)O)c1ccc(N2Cc3ccccc3C2=O)cc1 (stereo unspecified) [INDOPROFEN]
[1]
  AC50: > 30 µM
[2]
  AC50: > 30 µM
Vasopressin V2 receptor
  AC50: > 30 µM
B2 bradykinin receptor
  AC50: > 30 µM
[3]
  AC50: > 30 µM
Histamine H2 receptor
  AC50: > 30 µM
[4]
  AC50: > 30 µM
Endothelin-1 receptor
  AC50: > 30 µM
[5]
  AC50: > 30 µM
Motilin receptor
  AC50: > 30 µM
D(3) dopamine receptor
  AC50: > 30 µM
Mu-type opioid receptor
  AC50: > 30 µM
[6]
  AC50: > 30 µM
[7]
  AC50: > 30 µM
[8]
  AC50: > 30 µM

## CN1C(=O)C(O)N=C(c2ccccc2Cl)c2cc(Cl)ccc21 (stereo unspecified) [LORMETAZEPAM]
[1]
  AC50: > 30 µM
[2]
  AC50: > 30 µM
Vasopressin V2 receptor
  AC50: > 30 µM
B2 bradykinin receptor
  AC50: > 30 µM
[3]
  AC50: > 30 µM
Histamine H2 receptor
  AC50: > 30 µM
[4]
  AC50: > 30 µM
Endothelin-1 receptor
  AC50: > 30 µM
[5]
  AC50: > 30 µM
Motilin receptor
  AC50: > 30 µM
D(3) dopamine receptor
  AC50: > 30 µM
Mu-type opioid receptor
  AC50: > 30 µM
[6]
  AC50: > 30 µM
[7]
  AC50: > 30 µM

## CC(=O)O[C@H]1CC[C@@]2(C)C(=CC[C@@H]3[C@@H]2CC[C@]2(C)C(c4cccnc4)=CC[C@@H]32)C1 [ABIRATERONE ACETATE]
[1]
  AC50: > 10 µM
[2]
  AC50: > 30 µM
[3]
  AC50: > 30 µM
Histamine H2 receptor
  AC50: > 30 µM
[4]
  AC50: > 30 µM
Endothelin-1 receptor
  AC50: > 30 µM
[5]
  AC50: > 30 µM
Motilin receptor
  AC50: > 30 µM
D(3) dopamine receptor
  AC50: > 30 µM
Mu-type opioid receptor
  AC50: > 30 µM
[6]
  AC50: > 30 µM
[7]
  AC50: > 30 µM
[8]
  AC50: > 30 µM

## CC(C)OC(=O)CCC/C=C\C[C@@H]1[C@@H](CC[C@@H](O)CCc2ccccc2)[C@H](O)C[C@@H]1O [LATANOPROST]
[2]
  AC50: > 30 µM
Vasopressin V2 receptor
  AC50: > 30 µM
B2 bradykinin receptor
  AC50: > 30 µM
[3]
  AC50: > 30 µM
Histamine H2 receptor
  AC50: > 30 µM
[4]
  AC50: > 30 µM
Endothelin-1 receptor
  AC50: > 30 µM
[5]
  AC50: > 30 µM
Motilin receptor
  AC50: > 30 µM
D(3) dopamine receptor
  AC50: > 30 µM
Mu-type opioid receptor
  AC50: > 30 µM
[6]
  AC50: > 30 µM
[7]
  AC50: > 30 µM
[8]
  AC50: > 30 µM
